Experimental data reported in patent publication US20070225301A1, “TREATMENT OF ACNE AND OTHER DISEASES” (Astion Inflammation ApS, priority 2006, published 2007).
Where a name gives a salt, the structure may show the parent alone.

Key:
acne vulgaris = test: Case with treatment of acne vulgaris; format: in vivo, human; conditions: person; for Reddened inflamed area surrounding the lesion: topical treatment of acne vulgaris
Excerpt: A person was suffering from acne vulgaris characterised by comedones and some inflammatory lesions. They had previously regularly used a 5% benzoyl peroxide cream to treat the condition. During a flare up of the condition they applied a 5.0% aqueous solution of Pemirolast (potassium salt) once daily for four weeks to the areas affected. […] The treatment was followed and assessed by a physician.

[1] = system: arachidonic acid-induced ear inflammation; test: Arachidonic acid-induced ear-inflammation test in mice; format: in vivo, female BALB/cA mice; conditions: intraperitoneal, 30 minutes before arachidonic acid; ear oedema one hour after
Description: The anti-inflammatory potential of Pemirolast can be tested in “arachidonic acid-induced ear-inflammation test in mice”, a commonly employed method for screening and evaluation of antiinflammatory drugs. Dexamethasone was employed as reference compound.
The study can be performed in female BALB/cA mice from M & B A/S, DK-8680 Ry. The test substances (various concentration of Pemirolast dissolved in aqueous solutions) and the reference compound are administered intraperitoneally in volumes of 20 ml per kg body weight 30 minutes before application of arachidonic acid to the ear. All groups are then treated with 20 μl arachidonic acid, 100 mg/ml in acetone, on the right ear.
One hour after the application of arachidonic acid the mice are sacrificed, the ears cut from the tip with a punch biopsy knife (8 mm diameter) and weighed. Mean weights and standard deviations are calculated. Relative ear oedema is assessed as the weight difference between right and left ear of each mouse expressed as percent of the left ear. Percent inhibition of the relative ear oedema compared with the vehicle treated groups is calculated for the test substance and reference compound treated groups. […]

IL-1α = test: Cytokine production, LPS induced human PBMC; format: cell-based; conditions: stated in words only, no value
Description: The inhibition of Pemirolast on cytokine production was determined using the assay “LPS induced human PBMC”.

PPAR-α = target: T1, PPAR-α (Homo sapiens, UniProt Q07869); test: Gal-4-PPAR luciferase reporter assay in HEK 293-T (Indigo Biosciences); format: cell-based; conditions: % inhibition 50, 14 hours treatment, read-out: Concentration of Pemirolast giving 50 % inhibition of PPAR-α
T1 sequence (Q07869 200-468 limits assumed): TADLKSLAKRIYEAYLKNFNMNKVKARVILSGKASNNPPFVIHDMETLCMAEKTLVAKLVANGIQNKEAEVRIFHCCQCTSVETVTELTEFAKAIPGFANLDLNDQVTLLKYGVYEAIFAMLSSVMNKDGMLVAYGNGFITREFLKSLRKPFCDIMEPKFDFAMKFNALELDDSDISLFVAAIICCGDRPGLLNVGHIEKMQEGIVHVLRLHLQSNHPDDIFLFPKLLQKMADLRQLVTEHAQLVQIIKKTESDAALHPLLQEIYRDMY
Description: (§1) The inhibitory effect of Pemirolast on PPAR was determined by Indigo Biosciences. The following assay procedure was used: Compounds were diluted in DMSO to a final concentration of […] and serial dilutions prepared. The cell line HEK 293-T was transiently transfected with Gal-4-human PPARα, γ, Gal-4-luciferase and pRL (renilla, to correct for efficiency). The cells were treated with Pemirolast or with positive controls (ciprofibrate, or rosiglitazone) for 14 hours. The cells were lysed and luciferase and renilla activity were determined.

PPAR-γ = target: T2, PPAR-γ (Homo sapiens, UniProt P37231); test: as above; format: cell-based; conditions: % inhibition 50, 14 hours treatment, read-out: Concentration of Pemirolast giving 50 % inhibition of PPAR-γ
T2 sequence (P37231 238-505 limits assumed): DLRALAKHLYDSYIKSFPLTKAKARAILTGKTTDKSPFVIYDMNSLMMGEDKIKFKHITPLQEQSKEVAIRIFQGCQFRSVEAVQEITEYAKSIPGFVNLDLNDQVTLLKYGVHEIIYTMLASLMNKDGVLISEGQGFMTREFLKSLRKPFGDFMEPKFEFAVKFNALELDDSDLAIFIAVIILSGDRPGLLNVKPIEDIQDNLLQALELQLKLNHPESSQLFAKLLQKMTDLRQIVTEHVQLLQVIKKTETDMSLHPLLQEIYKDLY
Description: as §1

[2] = 5.0% aqueous solution once daily for four weeks, topical

| IC50 (PPAR-α) [µM] | IC50 (PPAR-γ) [µM] | Compound | Inflammatory acne lesions after treatment (acne vulgaris; [2]) | Scarring after treatment (acne vulgaris; [2]) | Reddened inflamed area surrounding the lesion (acne vulgaris) | Effect on inflammatory reaction in the arachidonic acid treated ear [1] | Inhibition of IL-1α (IL-1α) |
| --- | --- | --- | --- | --- | --- | --- | --- |
|  |  | Cc1cccn2c(=O)c(-c3nnn[nH]3)cnc12 [Pemirolast (potassium salt)] | completely recessed | without any noticeable scarring | also recessed |  |  |
| 17 | 20 | Cc1cccn2c(=O)c(-c3nnn[nH]3)cnc12 [Pemirolast, 9-methyl-3-(1H-tetrazol-5-yl)-4H-pyrido[1,2-a]pyrimidin-4-one] |  |  |  | significantly prevented the inflammatory reaction | inhibits |
|  |  | O=C(OOC(=O)c1ccccc1)c1ccccc1 [benzoyl peroxide] |  |  | did not remove the reddened inflamed area |  |  |
